Where “and” joins values, the source holds several entries; their conditions need not be identical. Identical values can stand only once.
System: recurrent or metastatic cervical cancer that has progressed after platinum-containing chemotherapy
Assay: Phase 3 trial, cemiplimab 350 mg IV Q3W versus investigator's choice (IC) chemotherapy: OS, PFS, ORR, DOR;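 note: randomized trial arms, OS counted from randomization until death with censoring at last contact, PFS until first RECIST 1.1 progression or death from any cause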
Details: for OS Hazard Ratio (95% CI) / OS subgroup analysis, Hazard Ratio (95% CI) / PFS HR (95% CI): cemiplimab vs chemotherapy; for Median OS (95% CI) / Median PFS (95% CI) / Median DOR, months (95% CI): Kaplan-Meier; for PFS Hazard Ratio (95% CI): cemiplimab vs chemo; for reduction in the risk of disease progression: vs chemotherapy
[1] = AC, cemiplimab N=65, chemo N=66
[2] = Example 3 analysis, total population
[3] = Example 4 updated, AC, listed as cemiplimab
[4] = Example 4 updated, SCC, listed as cemiplimab
[5] = Example 4 updated, overall population
[6] = Example 4 updated, overall population, listed as cemiplimab
[7] = overall population, listed as cemiplimab
[8] = overall population, N=304 per arm

cemiplimab
ORR (AC): 12.3% and 12%
OS Hazard Ratio (95% CI) (AC (non-SCC)): 0.556 (0.363, 0.853) and 0.56 (0.36-0.85)
OS Hazard Ratio (95% CI) (AC (non-SCC), listed as cemiplimab): 0.56
Estimated Event-Free Probability (PFS), % (95% CI) (AC, 6 months): 30.1 (19.3, 41.6) %
Estimated Survival Probability, % (95% CI) (AC, 6 months): 69.6 (56.5, 79.4) %
Estimated Event-Free Probability (PFS), % (95% CI) (AC, 12 months): 10.6 (4.4, 20.0) %
Estimated Survival Probability, % (95% CI) (AC, 12 months): 57.4 (43.9, 68.7) %
Estimated Event-Free Probability (PFS), % (95% CI) (AC, 18 months): 8.5 (3.0, 17.6) %
Estimated Survival Probability, % (95% CI) (AC, 18 months): 34.2 (21.5, 47.3) %
Estimated Event-Free Probability (PFS), % (95% CI) (AC, 24 months): 8.5 (3.0, 17.6) %
Estimated Survival Probability, % (95% CI) (AC, 24 months): 19.5 (8.4, 34.1) %
Median OS (95% CI) (AC): 13.3 (9.6, 17.6) months
Median OS (95% CI) (AC, listed as cemiplimab): 13.3 months
Best Overall Tumor Response: Complete Response (CR) [1]: 3 (4.6%) n (%)
Best Overall Tumor Response: Not Evaluable (NE) [1]: 6 (9.2%) n (%)
Best Overall Tumor Response: Partial Response (PR) [1]: 5 (7.7%) n (%)
Best Overall Tumor Response: Progressive Disease (PD) [1]: 19 (29.2%) n (%)
OS: Number of censored patients [1]: 24 (36.9%) n (%)
Objective Response Rate (ORR: CR + PR) [1]: 8 (12.3%) n (%)
Reduced risk of death (vs. chemotherapy) (AC, post-hoc): 44%
Reduced risk of death (vs. chemotherapy) (AC, post-hoc, listed as cemiplimab): 44%
OS subgroup analysis, Hazard Ratio (95% CI) (ECOG status per IWRS: 0): 0.59 (0.43-0.82)
OS subgroup analysis, Hazard Ratio (95% CI) (ECOG status per IWRS: 1): 0.74 (0.57-0.96)
PFS: Number of events (Example 3 analysis, Adeno, cemiplimab N=65, chemo N=66): 55 (84.6%) n (%)
PFS Hazard Ratio (95% CI) (Example 3 analysis, Adeno): 0.849 (0.574, 1.255)
Median PFS in month (95% CI) (Example 3 analysis, SCC): 2.8 (2.6, 4.0) month
PFS: Number of censored patients (Example 3 analysis, SCC): 53 (22.2%) n (%)
PFS: Number of deaths (Example 3 analysis, SCC): 25 (10.5%) n (%)
PFS: Progressive Disease (Example 3 analysis, SCC): 161 (67.4%) n (%)
Reduced risk of progression (vs. chemotherapy) (Example 3 analysis, SCC): 31%
PFS Hazard Ratio (95% CI) (Example 3 analysis, SCC): 0.686 (0.559, 0.843)
Median PFS in month (95% CI) [2]: 2.8 (2.6, 3.9) month
PFS: Number of censored patients [2]: 63 (20.7%) n (%)
PFS: Number of deaths [2]: 31 (10.2%) n (%)
PFS: Progressive Disease [2]: 210 (69.1%) n (%)
Reduced risk of progression (vs. chemotherapy) [2]: 28%
PFS: Number of events (Example 3 analysis, total population, N=304 per arm): 241 (79.3%) n (%)
PFS Hazard Ratio (95% CI) [2]: 0.719 (0.599, 0.862)
PFS: Number of censored patients (Example 4 updated, AC): 9 (13.8%) n (%)
PFS: Number of deaths (Example 4 updated, AC): 7 (10.8%) n (%)
PFS: Progressive Disease (Example 4 updated, AC): 49 (75.4%) n (%)
reduction in the risk of disease progression (Example 4 updated, AC, post-hoc): 9%
Median PFS (95% CI) (Example 4 updated, AC): 2.7 (2.3, 4.0) months
Median PFS (95% CI) [3]: 2.7 months
PFS: Number of events (Example 4 updated, AC, cemiplimab N=65, chemo N=66): 56 (86.2%) n (%)
PFS HR (95% CI) (Example 4 updated, AC): 0.912 (0.623, 1.335)
PFS HR (95% CI) [3]: 0.91
PFS: Number of censored patients (Example 4 updated, SCC): 42 (17.6%) n (%)
PFS: Number of deaths (Example 4 updated, SCC): 34 (14.2%) n (%)
PFS: Progressive Disease (Example 4 updated, SCC): 163 (68.2%) n (%)
Median PFS (95% CI) (Example 4 updated, SCC): 2.8 (2.6, 4.0) months
Median PFS (95% CI) [4]: 2.8 months
PFS HR (95% CI) (Example 4 updated, SCC): 0.705 (0.578, 0.861)
PFS HR (95% CI) [4]: 0.71
reduction in the risk of disease progression (Example 4 updated, SCC): 29%
PFS: Number of censored patients [5]: 51(16.8%) n (%)
PFS: Number of deaths [5]: 41(13.5%) n (%)
PFS: Progressive Disease [5]: 212 (69.7%) n (%)
Median PFS (95% CI) [5]: 2.8 (2.6, 3.9) months
Median PFS (95% CI) [6]: 2.8 months
PFS: Number of events (Example 4 updated, overall population, N=304 per arm): 253 (83.2%) n (%)
PFS HR (95% CI) [5]: 0.745 (0.625, 0.890)
PFS HR (95% CI) [6]: 0.75
reduction in the risk of disease progression [5]: 25%
OS subgroup analysis, Hazard Ratio (95% CI) (Geographic region: Asia): 0.65 (0.44-0.96)
OS subgroup analysis, Hazard Ratio (95% CI) (Geographic region: North America): 0.52 (0.27-1.00)
OS subgroup analysis, Hazard Ratio (95% CI) (Geographic region: Rest of World): 0.73 (0.57-0.94)
OS subgroup analysis, Hazard Ratio (95% CI) (Prior bevacizumab use: No): 0.76 (0.58-1.00)
OS subgroup analysis, Hazard Ratio (95% CI) (Prior bevacizumab use: Yes): 0.64 (0.48-0.86)
Reduced risk of death (vs. chemotherapy) (SCC): 27%
Estimated Event-Free Probability (PFS), % (95% CI) (SCC, 6 months): 34.5 (28.5, 40.5) %
Estimated Survival Probability, % (95% CI) (SCC, 6 months): 69.6 (63.3, 75.0) %
Estimated Event-Free Probability (PFS), % (95% CI) (SCC, 12 months): 21.0 (15.8, 26.6) %
Estimated Survival Probability, % (95% CI) (SCC, 12 months): 48.2 (41.3, 54.7) %
Estimated Event-Free Probability (PFS), % (95% CI) (SCC, 18 months): 14.5 (9.7, 20.1) %
Estimated Survival Probability, % (95% CI) (SCC, 18 months): 33.4 (26.3, 40.6) %
Estimated Event-Free Probability (PFS), % (95% CI) (SCC, 24 months): 10.3 (5.9, 16.0) %
Estimated Survival Probability, % (95% CI) (SCC, 24 months): 25.3 (17.8, 33.5) %
Estimated Event-Free Probability (PFS), % (95% CI) (SCC, 30 months): 7.7 (3.2, 14.8) %
Estimated Survival Probability, % (95% CI) (SCC, 30 months): 25.3 (17.8, 33.5) %
Median OS (95% CI) (SCC): 11.1 (9.2, 13.4) months
Median OS (95% CI) (SCC, listed as cemiplimab): 11.1 months
OS Hazard Ratio (95% CI) (SCC, stratified proportional hazards model): 0.727 (0.579, 0.914) and 0.73 (0.58-0.91)
OS Hazard Ratio (95% CI) (SCC, stratified proportional hazards model, listed as cemiplimab): 0.73
ORR (SCC, listed as cemiplimab): 17.6% and 18%
Reduced risk of death (vs. chemotherapy) (SCC, listed as cemiplimab): 27%
OS: Number of deaths (adenocarcinoma/adenosquamous (AC), cemiplimab N=65, chemo N=66): 41 (63.1%) n (%)
Median observed time to response, months (range) (overall population): 2.7 (1.2-11.4) months
Reduced risk of death (vs. chemotherapy) (overall population): 31%
Estimated Event-Free Probability (PFS), % (95% CI) (overall population, 6 months): 33.5 (28.2, 38.9) %
Estimated Survival Probability, % (95% CI) (overall population, 6 months): 69.6 (64.0, 74.5) %
Estimated Event-Free Probability (PFS), % (95% CI) (overall population, 12 months): 18.8 (14.4, 23.6) %
Estimated Survival Probability, % (95% CI) (overall population, 12 months): 50.2 (44.1, 56.0) %
Estimated Event-Free Probability (PFS), % (95% CI) (overall population, 18 months): 13.0 (9.0, 17.8) %
Estimated Survival Probability, % (95% CI) (overall population, 18 months): 33.4 (27.2, 39.7) %
Estimated Event-Free Probability (PFS), % (95% CI) (overall population, 24 months): 9.7 (6.0, 14.6) %
Estimated Survival Probability, % (95% CI) (overall population, 24 months): 23.6 (17.1, 30.6) %
Estimated Event-Free Probability (PFS), % (95% CI) (overall population, 30 months): 7.8 (3.8, 13.6) %
Estimated Survival Probability, % (95% CI) (overall population, 30 months): 23.6 (17.1, 30.6) %
Median DOR, months (95% CI) (overall population): 16.4 (12.4, NE) months
Median OS (95% CI) (overall population): 12.0 (10.3, 13.5) months
Median DOR, months (95% CI) [7]: 16 months
Median OS (95% CI) [7]: 12 months and 12.0 months
Best Overall Tumor Response: Complete Response (CR) [8]: 10 (3.3) n (%)
Best Overall Tumor Response: Not Evaluable (NE) [8]: 24 (7.9) n (%)
Best Overall Tumor Response: Partial Response (PR) [8]: 40 (13.2) n (%)
Best Overall Tumor Response: Progressive Disease (PD) [8]: 105 (34.5) n (%)
OS: Number of censored patients [8]: 120 (39.5%) n (%)
OS: Number of deaths [8]: 184 (60.5%) n (%)
Objective Response Rate (ORR: CR + PR) [8]: 50 (16.4%) n (%)
OS Hazard Ratio (95% CI) (overall population): 0.685 (0.560, 0.838)
OS Hazard Ratio (95% CI) [7]: 0.69
ORR [7]: 16.4% and 16%
Reduced risk of death (vs. chemotherapy) [7]: 31%
OS subgroup analysis, Hazard Ratio (95% CI) (prior lines: 1 line): 0.74 (0.58-0.94)
OS subgroup analysis, Hazard Ratio (95% CI) (prior lines: >1 line): 0.72 (0.54-0.95)

Source: patent US20210403567A1, “METHODS OF TREATING CERVICAL CANCER BY ADMINISTERING A PD-1 INHIBITOR” (priority 2020, published 2021)
